Laboratory results from US9210927B2, “Pesticidal compositions and processes related thereto” (Dow AgroSciences LLC, priority 2013, dated 2015).

Legend:
[1] = system: CEW (Helicoverpa zea); experiment: Bioassays on Corn Earworm (CEW), 128-well diet tray assay; format: in vivo; details: Helicoverpa zea, 168 h; percent mortality, second instar larvae, 50 μg/cm^2 on artificial diet, five to seven days, 25° C.; read-out: CEW Rating
Protocol: (§1) Bioassays on Beet Armyworm (“BAW”) and Corn Earworm (“CEW”) and Cabbage Looper (“CL”)
(§2) Certain molecules disclosed in this document were tested against BAW and CEW and CL using procedures described in the following examples. In the reporting of the results, the “BAW & CEW & CL Rating Table” was used (See Table Section).
Bioassays on CEW (Helicoverpa zea)
Bioassays on CEW were conducted using a 128-well diet tray assay. one to five second instar CEW larvae were placed in each well (3 mL) of the diet tray that had been previously filled with 1 mL of artificial diet to which 50 μg/cm^2 of the test compound (dissolved in 50 μL of 90:10 acetone-water mixture) had been applied (to each of eight wells) and then allowed to dry. Trays were covered with a clear self-adhesive cover, and held at 25° C., 14:10 light-dark for five to seven days. Percent mortality was recorded for the larvae in each well; activity in the eight wells was then averaged. The results are indicated in the table entitled “Table 3: Assay Results” (See Table Section).

[2] = system: BAW (Spodoptera exigua); experiment: Bioassays on Beet Armyworm (BAW), 128-well diet tray assay; format: in vivo; details: Spodoptera exigua, 168 h, read-out: BAW Rating
Protocol: as §1, §2
Bioassays on BAW (Spodoptera exigua)
Bioassays on BAW were conducted using a 128-well diet tray assay. one to five second instar BAW larvae were placed in each well (3 mL) of the diet tray that had been previously filled with 1 mL of artificial diet to which 50 μg/cm^2 of the test compound (dissolved in 50 μL of 90:10 acetone-water mixture) had been applied (to each of eight wells) and then allowed to dry. Trays were covered with a clear self-adhesive cover, and held at 25° C., 14:10 light-dark for five to seven days. Percent mortality was recorded for the larvae in each well; activity in the eight wells was then averaged. The results are indicated in the table entitled “Table 3: Assay Results” (See Table Section).

Row | SMILES | pest or weed control at 50 µg/cm2 [1] [%] | pest or weed control at 50 µg/cm2 [2] [%]
1 | CC(=O)N1CCC(NC(=O)c2ccc(/C=C/C(c3cc(Cl)c(Cl)c(Cl)c3)C(F)(F)F)cc2Br)CC1 (centres unmarked) [AC103, (E)-N-(1-Acetylpiperidin-4-yl)-2-bromo-4-(4,4,4-trifluoro-3-(3,4,5-trichlorophenyl)but-1-en-1-yl)benzamide] | 50 to 100 | 50 to 100
2 | N#CCN1CCC(NC(=O)c2ccc(/C=C/C(c3cc(Cl)c(Cl)c(Cl)c3)C(F)(F)F)cc2Br)CC1 (centres unmarked) [AC107] | 50 to 100 | 0 to 50
3 | CONC(=O)CNC(=O)c1ccc(/C=C/C(c2cc(Cl)c(Cl)c(Cl)c2)C(F)(F)F)cc1Br (centres unmarked) [AC110] | 50 to 100 | 50 to 100
4 | C=CCNC(=O)CNC(=O)c1ccc(/C=C/C(c2cc(Cl)c(Cl)c(Cl)c2)C(F)(F)F)cc1Br (centres unmarked) [AC111] | 50 to 100 | 50 to 100
5 | O=C(NCCc1ccc(Cl)nc1)c1ccc(/C=C/C(c2cc(Cl)c(Cl)c(Cl)c2)C(F)(F)F)cc1Br (centres unmarked) [AC113] | 50 to 100 | 0 to 50
6 | O=C(NC1CCNCC1)c1ccc(/C=C/C(c2cc(Cl)c(Cl)c(Cl)c2)C(F)(F)F)cc1Br (centres unmarked) [AC114, (E)-2-Bromo-N-(piperidin-4-yl)-4-(4,4,4-trifluoro-3-(3,4,5-trichlorophenyl)but-1-en-1-yl)benzamide] | 0 to 50 | 50 to 100
7 | Cc1cc(/C=C/C(c2cc(Cl)cc(Cl)c2)C(F)(F)F)ccc1C(=S)NCc1ccc(Cl)nc1 (centres unmarked) [AC115, (E)-N-((6-Chloropyridin-3-yl)methyl)-4-(3-(3,5-dichlorophenyl)-4,4,4-trifluorobut-1-en-1-yl)-2-methylbenzothioamide] | 50 to 100 | 50 to 100
8 | O=C(NC1CCc2cc(/C=C/C(c3cc(Cl)c(Cl)c(Cl)c3)C(F)(F)F)ccc21)C1CC1 (centres unmarked) [BC6] | 50 to 100 | 50 to 100
9 | O=C(NC1CCCc2cc(/C=C/C(c3cc(Cl)c(Cl)c(Cl)c3)C(F)(F)F)ccc21)C1CC1 (centres unmarked) [BC7] | 50 to 100 | 50 to 100
10 | O=C(Cc1ccc(Cl)nc1)NC1CCc2cc(/C=C/C(c3cc(Cl)c(F)c(Cl)c3)C(F)(F)F)ccc21 (centres unmarked) [BC9] | 50 to 100 | 50 to 100
11 | O=C(CC(F)(F)F)NCC(=O)n1ccc2cc(/C=C/C(c3cc(Cl)c(F)c(Cl)c3)C(F)(F)F)ccc21 (centres unmarked) [BC13, (E)-N-(2-(5-(3-(3,5-Dichloro-4-fluorophenyl)-4,4,4-trifluorobut-1-en-1-yl)-1H-indol-1-yl)-2-oxoethyl)-3,3,3-trifluoropropanamide] | 50 to 100 | 50 to 100
12 | O=C(CC(F)(F)F)NCc1ccc(/C=C/C(c2cc(Cl)cc(Cl)c2)C(F)(F)F)cc1 (centres unmarked) [CC3] | 50 to 100 | 50 to 100
13 | O=C(NCc1ccc(/C=C/C(c2cc(Cl)cc(Cl)c2)C(F)(F)F)cc1Cl)C1CC1 (centres unmarked) [CC8] | 50 to 100 | 50 to 100
14 | FC(F)(F)C(/C=C/c1ccc(CNC(=S)C2CC2)c(Cl)c1)c1cc(Cl)c(Cl)c(Cl)c1 (centres unmarked) [CC20] | 50 to 100 | 50 to 100
15 | O=C(NCc1ccc(/C=C/C(c2cc(Cl)cc(Cl)c2)C(F)(F)F)cc1C(F)(F)F)C1CC1 (centres unmarked) [CC21] | 50 to 100 | 50 to 100
16 | O=C(CC(F)(F)F)NCc1ccc(/C=C/C(c2cc(Cl)c(Cl)c(Cl)c2)C(F)(F)F)cc1C(F)(F)F (centres unmarked) [CC24] | 50 to 100 | 50 to 100
17 | O=C(CC(F)(F)F)NCc1ccc(/C=C/C(c2cc(Cl)c(Cl)c(Cl)c2)C(F)(F)F)cc1F (centres unmarked) [CC27] | 50 to 100 | 50 to 100
18 | O=C(NCc1ccc(/C=C/C(c2cc(Cl)c(Cl)c(Cl)c2)C(F)(F)F)cc1F)C1CC1 (centres unmarked) [CC28] | 50 to 100 | 50 to 100
19 | CS(=O)(=O)CCC(=O)NCc1ccc(/C=C/C(c2cc(Cl)c(Cl)c(Cl)c2)C(F)(F)F)cc1Cl (centres unmarked) [CC30, (E)-N-(2-Chloro-4-(4,4,4-trifluoro-3-(3,4,5-trichlorophenyl)but-1-en-1-yl)benzyl)-3-(methylsulfonyl)propanamide] | 50 to 100 | 50 to 100

Row | SMILES | pest or weed control at 50 µg/cm2 [1] [%] | pest or weed control at 50 µg/cm2 [2] [%]
20 | CN(C)C(=O)NCc1ccc(/C=C/C(c2cc(Cl)c(Cl)c(Cl)c2)C(F)(F)F)cc1Cl (centres unmarked) [CC36, (E)-3-(2-Chloro-4-(4,4,4-trifluoro-3-(3,4,5-trichlorophenyl)but-1-en-1-yl)benzyl)-1,1-dimethylurea] | 50 to 100 | 50 to 100
21 | CCNC(=S)NCc1ccc(/C=C/C(c2cc(Cl)c(Cl)c(Cl)c2)C(F)(F)F)cc1Cl (centres unmarked) [CC37, (E)-1-(2-Chloro-4-(4,4,4-trifluoro-3-(3,4,5-trichlorophenyl)but-1-en-1-yl)benzyl)-3-ethylthiourea] | 50 to 100 | 50 to 100
22 | C=CCNC(=S)NCc1ccc(/C=C/C(c2cc(Cl)c(Cl)c(Cl)c2)C(F)(F)F)cc1Cl (centres unmarked) [CC38] | 50 to 100 | 50 to 100
23 | O=C(NCc1ncc(/C=C/C(c2cc(Cl)c(Cl)c(Cl)c2)C(F)(F)F)cc1Cl)C1CC1 (centres unmarked) [CC45] | 50 to 100 | 50 to 100
24 | O=C(NNc1ccc(/C=C/C(c2cc(Cl)c(Cl)c(Cl)c2)C(F)(F)F)cc1)C1CC1 (centres unmarked) [CC50, (E)-N′-(4-(4,4,4-Trifluoro-3-(3,4,5-trichlorophenyl)but-1-en-1-yl)phenyl)cyclopropanecarbohydrazide] | 50 to 100 | 50 to 100
25 | O=C(CC(F)(F)F)NNc1ccc(/C=C/C(c2cc(Cl)c(Cl)c(Cl)c2)C(F)(F)F)cc1 (centres unmarked) [CC51] | 50 to 100 | 50 to 100
26 | O=C(CC(F)(F)F)NCc1ccc(/C=C\C(c2cc(Cl)c(Cl)c(Cl)c2)C(F)(F)F)cc1 (centres unmarked) [CC54, (Z)-3,3,3-Trifluoro-N-(4-(4,4,4-trifluoro-3-(3,4,5-trichlorophenyl)but-1-en-1-yl)benzyl)propanamide] | 50 to 100 | 50 to 100
27 | FC(F)(F)C(/C=C/c1ccc(-n2cncn2)cc1)c1cc(Cl)cc(Cl)c1 (centres unmarked) [DC1, (E)-1-(4-(3-(3,5-Dichlorophenyl)-4,4,4-trifluorobut-1-en-1-yl)phenyl)-1H-1,2,4-triazole] | 50 to 100 | 50 to 100
28 | FC(F)(F)c1cc(C(/C=C/c2ccc(-n3cncn3)cc2)C(F)(F)F)cc(C(F)(F)F)c1 (centres unmarked) [DC16] | 50 to 100 | 50 to 100
29 | N#Cc1cc(/C=C/C(c2cc(Cl)cc(C(F)(F)F)c2)C(F)(F)F)ccc1-n1cncn1 (centres unmarked) [DC33] | 50 to 100 | 50 to 100
30 | N#Cc1cc(/C=C/C(c2cc(Cl)cc(Cl)c2)C(F)(F)F)ccc1-n1cnc([N+](=O)[O-])n1 (centres unmarked) [DC37] | 50 to 100 | 50 to 100
31 | N#Cc1cc(/C=C/C(c2cc(Cl)cc(Cl)c2)C(F)(F)F)ccc1-n1cnc(N)n1 (centres unmarked) [DC38] | 50 to 100 | 50 to 100
32 | CC(=O)Nc1ncn(-c2ccc(/C=C/C(c3cc(Cl)cc(Cl)c3)C(F)(F)F)cc2C#N)n1 (centres unmarked) [DC39] | 50 to 100 | 50 to 100
33 | N#Cc1cc(/C=C/C(c2cc(Cl)c(Cl)c(Cl)c2)C(F)(F)F)ccc1-n1cnc([N+](=O)[O-])n1 (centres unmarked) [DC40, (E)-2-(3-Nitro-1H-1,2,4-triazol-1-yl)-5-(4,4,4-trifluoro-3-(3,4,5-trichlorophenyl)but-1-en-1-yl)benzonitrile] | 50 to 100 | 50 to 100
34 | N#Cc1cc(/C=C/C(c2cc(Cl)c(Cl)c(Cl)c2)C(F)(F)F)ccc1-n1cnc(N)n1 (centres unmarked) [DC41, (E)-2-(3-Amino-1H-1,2,4-triazol-1-yl)-5-(4,4,4-trifluoro-3-(3,4,5-trichlorophenyl)but-1-en-1-yl)benzonitrile] | 50 to 100 | 50 to 100
35 | N#Cc1cc(/C=C/C(c2cc(Cl)c(Cl)c(Cl)c2)C(F)(F)F)ccc1-n1cnc(N(C(=O)C2CC2)C(=O)C2CC2)n1 (centres unmarked) [DC42, (E)-N-(1-(2-Cyano-4-(4,4,4-trifluoro-3-(3,4,5-trichlorophenyl)but-1-en-1-yl)phenyl)-1H-1,2,4-triazol-3-yl)-N-(cyclopropanecarbonyl)cyclopropanecarboxamide] | 50 to 100 | 50 to 100
36 | N#Cc1cc(/C=C/C(c2cc(Cl)c(Cl)c(Cl)c2)C(F)(F)F)ccc1-n1cnc(NC(=O)C2CC2)n1 (centres unmarked) [DC43, (E)-N-(1-(2-Cyano-4-(4,4,4-trifluoro-3-(3,4,5-trichlorophenyl)but-1-en-1-yl)phenyl)-1H-1,2,4-triazol-3-yl)cyclopropanecarboxamide] | 50 to 100 | 50 to 100
37 | Cc1cc(/C=C/C(c2cc(Cl)cc(Cl)c2)C(F)(F)F)cc(C#N)c1-n1cncn1 (centres unmarked) [DC44] | 50 to 100 | 50 to 100
